Data on twelve molecules can be found in patent US6770587B1, “Chain extended functionalized initiators and methods of preparing and using the same” (FMC Corporation, priority 2000, dated 2004).

The nature of series [1]: Storage of initiator solutions, observation of precipitate or crystals. The format is physicochemical. The method, then: The sample bottle was placed in a refrigerator at −1° C. for twenty-four hours.
The sample bottle was placed in a refrigerator at −1° C. for twenty-four hours. […] This solution was transferred to a dry, one-liter pear shaped flask. A majority of the solvent was removed on the rotary evaporator, at full vacuum, with a bath temperature of 40° C. This afforded a dark amber oil, yield=154.85 grams.
The sample bottle was placed in a refrigerator at −1° C. for twenty-four hours. […] This solution was transferred to a dry, one liter pear shaped flask. A majority of the solvent was removed on the rotary evaporator, at full vacuum, with a bath temperature of 40° C. This afforded a dark amber oil, yield=230.07 grams.
The sample bottle was placed in a refrigerator at −2° C. for forty-eight hours.
This solution was transferred to a dry, 500 ml., pear shaped flask. A majority of the solvent was removed on the rotary evaporator, at full vacuum, with a bath temperature of 40° C. This afforded a dark amber oil, yield=104.90 grams. Heptane, 6.11 grams, was added as a freezing point depressant.
A one-liter three-necked Morton flask was equipped with a mechanical stirrer, Claisen adapter with an ice condenser and gas inlet, and a 250 milliliter pressure-equalizing dropping funnel. This apparatus was dried in an oven overnight at 125° C., assembled hot, and allowed to cool to room temperature in a stream of argon. Lithium metal dispersion was washed free of mineral oil with hexane (2×100 ml), and pentane (1×100 ml). The resultant lithium dispersion was dried in a stream of argon, weighed (12.22 grams, 1.76 moles, 2.80 equivalents), and transferred to the reaction flask with 550 ml of cyclohexane. The mechanical stirrer was set at an agitation rate of 500 RPMs, and the reaction mixture was heated to 80° C. with a hearing mantle. The heat source was removed. The dropping funnel was charged with 94.90 grams (0.63 moles, 1.00 equivalent) of the precursor. The precursor was added dropwise, at an approximate rate of 1.59 ml/min. The reaction temperature was maintained at 70° C. with a dry ice/hexane bath. The total halide feed time was 66 minutes. The reaction mixture was allowed to stir for one hour post-feed and maintained at a temperature of 67.5° C. with a heating mantle. Then isoprene, 22.89 grams ([…], 0.50 equivalents of isoprene) was added at a feed rate of approximately 1.58 ml/min. The temperature was maintained at 62.5° C. during and after the feed. The reaction stirred for two hours before it was cooled to room temperature and filtered through a medium porosity pressure filter. The lithium muds were washed with cyclohexane (2×70 ml). The filtration took 15 minutes. This afforded a clear, light yellow solution, 513.07 g, 650 ml. The sample was stored in 0° C. refrigerator. This solution was transferred to a dry, 1000 ml pear-shaped flask. Some solvent was removed on the rotary evaporator, at full vacuum, with a bath temperature of 30° C. This afforded a light yellow solution, yield=386.01 g, 550 ml.
A one-liter three-necked Morton flask was equipped with a mechanical stirrer, Claisen adapter with an ice condenser and gas inlet, and a 250 milliliter pressure-equalizing dropping funnel. This apparatus was dried in an oven overnight at 125° C., assembled hot, and allowed to cool to room temperature in a stream of argon. Lithium metal dispersion was washed free of mineral oil with hexane (2×100 ml) and pentane (1×100 ml). The resultant lithium dispersion was dried in a stream of argon, weighed (13.90 grams, 2.00 moles, 2.80 equivalents), and transferred to the reaction flask with 400 ml of cyclohexane. The mechanical stirrer was set at an agitation rate of 500 RPMs, and the reaction mixture was heated to 80° C. with a heating mantle. The heat source was removed. The dropping funnel was charged with 107.82 grams (0.72 moles, 1.00 equivalent) of the precursor. The precursor was added dropwise, at an approximate rate of 0.71 ml/min. […]

The nature of series [2]: Solubility of initiator in cyclohexane with isoprene added as chain extension agent. The format is physicochemical. As to conditions: for solubility, Moles Active/Kg. / solubility, Moles Active/Liter: cyclohexane. The protocol: For example, the solubility of 3-(1,1-dimethylethoxy)-1-propyllithium was investigated in cyclohexane at 0° C., with various amounts of isoprene added as a chain extension agent. The solubility data is collected in the table below:
A similar impact on the solubility of 3-(hexamethyleneimino)-1-propyllithium in cyclohexane was obtained with the addition of limited amounts of isoprene.
A one-liter three-necked Morton flask was equipped with a mechanical stirrer, Claisen adapter with an ice condenser and gas inlet, and a 250 milliliter pressure-equalizing dropping funnel. This apparatus was dried in an oven overnight at 125° C., assembled hot, and allowed to cool to room temperature in a stream of argon. Lithium metal dispersion was washed free of mineral oil with hexane (2×100 ml) and pentane (1×100 ml). The resultant lithium dispersion was dried in a stream of argon, weighed (13.90 grams, 2.00 moles, 2.80 equivalents), and transferred to the reaction flask with 400 ml of cyclohexane. The mechanical stirrer was set at an agitation rate of 500 RPMs, and the reaction mixture was heated to 80° C. with a heating mantle. The heat source was removed. The dropping funnel was charged with 107.82 grams (0.72 moles, 1.00 equivalent) of the precursor. The precursor was added dropwise, at an approximate rate of 0.71 ml/min. The reaction temperature was maintained at 70° C. with a dry ice/hexane bath. The total halide feed time was 162 minutes. The reaction mixture was allowed to stir for one hour post-feed, and maintained at a temperature of 70° C. with a heating mantle. Then isoprene, 98.20 grams ([…], […] of isoprene) was added at a feed rate of approximately 2.55 ml/min. The temperature was maintained at 62.5° C. during and after the feed. The reaction stirred for two hours before it was cooled to room temperature and filtered through a medium porosity pressure filter. The lithium muds were washed with cyclohexane (1×50 ml). The filtration took 15 minutes. This afforded a dark yellow solution, 647.08 grams, 850 ml. The sample was stored in 0° C. refrigerator. This solution was transferred to a dry, 1000 ml pear shaped flask. A majority of the solvent was removed on the rotary evaporator, at full vacuum, with a bath temperature of 30° C. This afforded a mobile, yellow oil, yield=307.92 g, 475 ml.

The conditions of series [3]: non-chain extended initiator, cyclohexane (background statement); cited from earlier work.
The mark [4] stands for this setting: 0° C., 0.00 isoprene equivalents.
Where [5] appears, read: 0° C., 0.50 isoprene equivalents.
The mark [6] stands for this setting: 0° C., 0.75 isoprene equivalents.
Setting [7] is: 0° C., 1.00 isoprene equivalents.
Where [8] appears, read: 0° C., 2.00 isoprene equivalents.

Consider `[Li][CH2]CCN1CCCC1` [3-(pyrrolidino)-1-propyllithium], for which the precipitation on storage result in series [1] (cyclohexane solution before chain extension, 14.63 wt. % (1.228 moles/kg), overnight at 20° C.) was “heavy white precipitate had formed”.
Take `[Li][CH2]CCN1CCCC1` [Example 4, 3-(Pyrrolidino)-1-Propyllithium]: the precipitation on storage entry in series [1] (cyclohexane solution diluted with heptane, 9.53 wt. %, −2° C. for forty-eight hours) was “No solids had precipitated”.
With `[Li][CH2]CCOC(C)(C)C` [Example 7, 3-(1,1-Dimethylethoxy)-1-propyllithium], in series [1] (cyclohexane solution, 0° C. refrigerator, after one day), the crystals on storage entry is on record as “Crystals were present”.
On to `[Li][CH2]CCN1CCCCCC1` [3-(hexamethyleneimino)-1-propyllithium], for which the “solubility, Moles Active/Kg.” value in series [2] (0.00 isoprene equivalents) was 0.20 Moles Active/Kg; in series [2] (0.13 isoprene equivalents), 0.64 Moles Active/Kg; in series [2] (0.51 isoprene equivalents), 2.08 Moles Active/Kg; in series [2] (0.90 isoprene equivalents), 2.43 Moles Active/Kg; in series [2] (2.00 isoprene equivalents) it was 2.75 Moles Active/Kg. Also, the “solubility, Moles Active/Liter” value amounted to 0.16 Moles Active/Liter in series [2] (0.00 isoprene equivalents); 0.51 Moles Active/Liter in series [2] (0.13 isoprene equivalents); 1.62 Moles Active/Liter in series [2] (0.51 isoprene equivalents); 2.01 Moles Active/Liter in series [2] (0.90 isoprene equivalents); 2.28 Moles Active/Liter in series [2] (2.00 isoprene equivalents). For the same molecule, the precipitation on storage entry in series [1] (cyclohexane solution, 6.707 wt. % (0.4556 moles/kg), overnight at −5° C.) is “heavy white precipitate”. The “maximum solubility in cyclohexane” value in series [3] is reported as 0.30 Molar.
Regarding `[Li][CH2]CCOC(C)(C)CC` [3-(1,1-dimethylpropyloxy)-1-propyllithium], in series [3], the “maximum solubility in cyclohexane” value is reported as 0.30 Molar.
As to `[Li][CH2]C(C)(C)CO[Si](C)(C)C` [2,2-dimethyl-3-trimethylsilyloxy-1-propyllithium], the “effect of chain extension on solubility” value in series [2] (addition of less than one equivalent of the chain extension agent) is given as “increased the solubility”.
For the molecule `[Li][CH2]CCOC(C)(C)C` [3-(1,1-dimethylethoxy)-1-propyllithium], the “solubility, Moles Active/Kg.” value in series [2] (setting [4]) is reported as 0.36 Moles Active/Kg; in series [2] (setting [5]), 1.35 Moles Active/Kg; in series [2] (setting [6]), 1.72 Moles Active/Kg; in series [2] (setting [7]) it was 1.84 Moles Active/Kg; in series [2] (setting [8]), 1.90 Moles Active/Kg. In addition, the “solubility, Moles Active/Liter” value amounted to 0.30 Moles Active/Liter in series [2] (setting [4]); 1.06 Moles Active/Liter in series [2] (setting [5]); 1.33 Moles Active/Liter in series [2] (setting [6]); 1.42 Moles Active/Liter in series [2] (setting [7]); 1.46 Moles Active/Liter in series [2] (setting [8]).
Turning to `[Li][CH2]CCOC(C)(C)C` [Example 10, 3-(1,1-Dimethylethoxy)-1-propyllithium], the crystals on storage entry in series [1] (concentrated cyclohexane solution, 49.4 wt. % (1.91 mole/kg), storage in 0° C. refrigerator, maximum solubility) is given as “crystals were present”.
With `[Li][CH2]CCN1CCCCCC1` [Example 3, 3-(Hexamethyleneimino)-1-Propyllithium], the precipitation on storage result in series [1] (concentrated solution, 35.74 wt. % (2.428 moles/kg), −1° C. for ten days) is recorded as “no precipitate was observed”.
With `[Li][CH2]CCN1CCCC1` [Example 5, 3-(Pyrrolidino)-1-Propyllithium], the precipitation on storage entry in series [1] (concentrated solution with heptane, 24.14 wt %, −2° C. for four days) is “no solids had precipitated”; in series [1] (cyclohexane solution, 14.02 wt. %, overnight at −2° C.), “no solids had precipitated”.
For `[Li][CH2]CCN1CCCCCC1` [Example 1, 3-(Hexamethyleneimino)-1-Propyllithium], the precipitation on storage entry is recorded as “No solids had precipitated” in series [1] (cyclohexane solution as obtained, refrigerator at −1° C. for twenty-four hours) and “no solids had precipitated” in series [1] (cyclohexane solution as obtained, storage overnight at 15° C.).
With `[Li][CH2]CCN1CCCCCC1` [Example 2, 3-(Hexamethyleneimino)-1-Propyllithium], the precipitation on storage entry in series [1] (concentrated solution, 30.65 wt. % (2.083 moles/kg), −1° C. for one week) is reported as “no precipitate was observed”.
